These molecules were tested on Aβ 40 in conditioned media of cells stably expressing Amyloid Precursor Protein (APP) (assay: BACE Cell-Based Assay (Aβ40 in conditioned medium, sandwich ELISA)). Details: 24 hours of incubation with the test compounds, Aβ 40 by sandwich ELISA, read-out: IC50 values in the cell-based assay (inhibition of Aβ 40).
Experimental: The cell-based assay measures inhibition or reduction of Aβ40 in conditioned medium of test compound treated cells, which express amyloid precursor protein.
Cells stably expressing Amyloid Precursor Protein (APP) were plated at a density of 40K cells/well in 96 well plates (Costar). The cells were cultivated for 24 h at 37° C. and 5% CO2 in DMEM supplemented with 10% FBS. The test compounds were then added to cells in 10-point dose response concentrations with the starting concentration being either 100 μM or 10 μM. The compounds were diluted from stock solutions in DMSO and the final DMSO concentration of the test compounds on cells was 0.1%. After 24 hours of incubation with the test compounds the supernatant conditioned media was collected and the Aβ 40 levels were determined using a sandwich ELISA. The IC50 of the compound was calculated from the percent of control or percent inhibition of Aβ 40 as a function of the concentration of the test compound.
The sandwich ELISA to detect Aβ 40 was performed in 96 well microtiter plates, which were pre-treated with goat anti-rabbit IgG (Pierce). The capture and detecting antibody pair that were used to detect Aβ 40 from cell supernatants were affinity purified pAb40 (Biosource) and biotinylated 6E10 (Signet Labs Inc.), respectively. The optimal concentration for the pAb40 antibody was 3 μg/ml in Superblock/TBS (Pierce) that was supplemented with 0.05% Tween 20 (Sigma). Optimal concentration for the detection antibody 6E10-biotinylated was […] in Superblock/TBS (Pierce) that had been supplemented with 2% normal goat serum and 2% normal mouse serum.
Cellular supernatants were incubated with the capture antibody for 3 h at 4° C., followed by 3 wash steps in TBS-tween (0.05%). The detecting antibody incubation was for 2 h at 4° C., again followed by the wash steps as described previously. The final readout of the ELISA is Time-Resolved Fluorescence (counts per minute) using Delfia reagents Streptavidin-Europium and Enhancement solutions (Perkin Elmer) and the Victor 2 multilabel counter (Perkin Elmer).
`Cc1ccc2c(c1)[C@@H](NC[C@@H](O)[C@H](Cc1ccccc1)NC(=O)c1cc(N3CCCC3=O)c(=O)n(C3CCCC3)c1)CC1(CCCC1)O2` [Example 131, 1-cyclopentyl-N-((2S,3R)-4-((S)-2,2-spirocyclopentyl-6-methylchroman-4-ylamino)-3-hydroxy-1-phenylbutan-2-yl)-6-oxo-5-(2-oxopyrrolidin-1-yl)-1,6-dihydropyridine-3-carboxamide] showed an IC50 of no more than 5 µM. `Cc1ccc2c(c1)[C@@H](NC[C@@H](O)[C@H](Cc1ccccc1)NC(=O)c1ccc(=O)n(C3CCCC3)c1)CC1(CCCC1)O2` [Example 132, 1-cyclopentyl-N-((2S,3R)-4-((S)-2,2-spirocyclopentyl-6-methylchroman-4-ylamino)-3-hydroxy-1-phenylbutan-2-yl)-6-oxo-1,6-dihydropyridine-3-carboxamide] showed an IC50 of no more than 5 µM. With `Cc1ccc2c(c1)[C@@H](NC[C@@H](O)[C@H](Cc1ccccc1)NC(=O)c1ccc(=O)n(CC(C)(C)C)c1)CC1(CCCC1)O2` [Example 133, N-((2S,3R)-4-((S)-2,2-spirocyclopentyl-6-methylchroman-4-ylamino)-3-hydroxy-1-phenylbutan-2-yl)-1-neopentyl-6-oxo-1,6-dihydropyridine-3-carboxamide] the IC50 was no more than 5 µM. `O=C(N[C@@H](Cc1ccccc1)[C@H](O)CN[C@H]1CC2(CCCC2)Oc2ccc(OC(F)(F)F)cc21)c1cc(N2CCCC2=O)c(=O)n(C2CCCC2)c1` [Example 134, 1-cyclopentyl-N-((2S,3R)-4-((S)-2,2-spirocyclopentyl-6-(trifluoromethoxy)chroman-4-ylamino)-3-hydroxy-1-phenylbutan-2-yl)-6-oxo-5-(2-oxopyrrolidin-1-yl)-1,6-dihydropyridine-3-carboxamide] was tested, and the IC50 was no more than 5 µM. For `O=C(N[C@@H](Cc1ccccc1)[C@H](O)CN[C@H]1CC2(CCCC2)Oc2ccc(OC(F)(F)F)cc21)c1ccc(=O)n(C2CCCC2)c1` [Example 135, 1-cyclopentyl-N-((2S,3R)-4-((S)-2,2-spirocyclopentyl-6-(tri-fluoromethoxy)chroman-4-ylamino)-3-hydroxy-1-phenylbutan-2-yl)-6-oxo-1,6-dihydropyridine-3-carb oxamide], the IC50 was no more than 5 µM. For `CC(C)(C)Cn1cc(C(=O)N[C@@H](Cc2ccccc2)[C@H](O)CN[C@H]2CC3(CCCC3)Oc3ccc(OC(F)(F)F)cc32)ccc1=O` [Example 136, N-((2S,3R)-4-((S)-2,2-spirocyclopentyl-6-(trifluoro-methoxy)chroman-4-ylamino)-3-hydroxy-1-phenylbutan-2-yl)-1-neopentyl-6-oxo-1,6-dihydropyridine-3-carboxamide], the IC50 was no more than 5 µM. For `CC(C)c1ccc2c(c1)[C@@H](NC[C@@H](O)[C@H](Cc1ccccc1)NC(=O)c1cc(N3CCCC3=O)c(=O)n(C3CCCC3)c1)CC1(CCCC1)O2` [Example 137, 1-cyclopentyl-N-((2S,3R)-4-((S)-2,2-spirocyclopentyl-6-iso-propylchroman-4-ylamino)-3-hydroxy-1-phenylbutan-2-yl)-6-oxo-5-(2-oxopyrrolidin-1-yl)-1,6-dihydropyridine-3-carboxamide], the IC50 was no more than 5 µM. `CC(C)c1ccc2c(c1)[C@@H](NC[C@@H](O)[C@H](Cc1ccccc1)NC(=O)c1ccc(=O)n(C3CCCC3)c1)CC1(CCCC1)O2` [Example 138, 1-cyclopentyl-N-((2S,3R)-4-((S)-2,2-spirocyclopentyl-6-iso-propylchroman-4-ylamino)-3-hydroxy-1-phenylbutan-2-yl)-6-oxo-1,6-dihydropyridine-3-carb oxamide] showed an IC50 of no more than 5 µM. In the case of `CCc1ccc2c(c1)[C@@H](NC[C@@H](O)[C@H](Cc1ccccc1)NC(=O)c1cc(N3CCCC3=O)c(=O)n(C3CCCC3)c1)CC1(CCCC1C)O2` (stereo partly drawn) [Example 140, 1-cyclopentyl-N-((2S,3R)-4-((S)-6-ethyl-2,2-(-methyl)-spirocyclopentylchroman-4-ylamino)-3-hydroxy-1-phenylbutan-2-yl)-6-oxo-5-(2-oxopyrrolidin-1-yl)-1,6-dihydropyridine-3-carboxamide], the IC50 is reported as no more than 5 µM. In the case of `CCc1ccc2c(c1)[C@@H](NC[C@@H](O)[C@H](Cc1ccccc1)NC(=O)c1ccc(=O)n(C3CCCC3)c1)CC1(CCCC1C)O2` (stereo partly drawn) [Example 141, 1-cyclopentyl-N-((2S,3R)-4-((S)-6-ethyl-2,2-(-methyl)-spirocyclopentylchroman-4-ylamino)-3-hydroxy-1-phenylbutan-2-yl)-6-oxo-1,6-dihydropyridine-3-carboxamide], the IC50 is reported as no more than 5 µM. `CCc1ccc2c(c1)[C@@H](NC[C@@H](O)[C@H](Cc1ccccc1)NC(=O)c1nn(-c3ccccc3)c(=O)cc1Cl)CC1(CCCC1)O2` [Example 142, 4-chloro-N-((2S,3R)-4-((S)-6-ethyl-2,2-spirocyclopentylchroman-4-ylamino)-3-hydroxy-1-phenylbutan-2-yl)-6-oxo-1-phenyl-1,6-dihydropyridazine-3-carboxamide] showed an IC50 of no more than 5 µM. Work on `CC(C)c1ccc2c(c1)[C@@H](NC[C@@H](O)[C@H](Cc1ccccc1)NC(=O)c1nn(-c3ccccc3)c(=O)cc1Cl)CC1(CCCC1)O2` [Example 144, 4-chloro-N-((2S,3R)-3-hydroxy-4-((S)-6-isopropyl-2,2-spirocyclopentylchroman-4-ylamino)-1-phenylbutan-2-yl)-6-oxo-1-phenyl-1,6-dihydropyridazine-3-carb oxamide] yielded an IC50 of no more than 5 µM. With `CCc1ccc2c(c1)[C@@H](NC[C@@H](O)[C@H](Cc1ccccc1)NC(=O)c1ccc(=O)n(-c3ccccc3)n1)CC1(CCC1)O2` [Example 146, N-((2S,3R)-4-((S)-6-ethyl-2,2-spirocyclobutylchroman-4-ylamino)-3-hydroxy-1-phenylbutan-2-yl)-6-oxo-1-phenyl-1,6-dihydropyridazine-3-carboxamide] the IC50 was no more than 5 µM. `CCc1ccc2c(c1)[C@@H](NC[C@@H](O)[C@H](Cc1ccccc1)NC(=O)c1nn(-c3ccccc3)c(=O)cc1Cl)CC1(CCC1)O2` [Example 147, 4-chloro-N-((2S,3R)-4-((S)-6-ethyl-2,2-spirocyclobutylchroman-4-ylamino)-3-hydroxy-1-phenylbutan-2-yl)-6-oxo-1-phenyl-1,6-dihydropyridazine-3-carboxamide] gave an IC50 of no more than 5 µM. Work on `O=C(N[C@@H](Cc1ccccc1)[C@H](O)CN[C@H]1CC2(CCCC2)Oc2ccccc21)c1cc(N2CCCC2=O)c(=O)n(C2CCCC2)c1` [Example 148, 1-cyclopentyl-N-((2S,3R)-4-((S)-2,2-spirocyclopentylchroman-4-ylamino)-3-hydroxy-1-phenylbutan-2-yl)-6-oxo-5-(2-oxopyrrolidin-1-yl)-1,6-dihydropyridine-3-carboxamide] yielded an IC50 of no more than 5 µM. Molecule `O=C(N[C@@H](Cc1ccccc1)[C@H](O)CN[C@H]1CC2(CCCC2)Oc2ccccc21)c1ccc(=O)n(C2CCCC2)c1` [Example 149, 1-cyclopentyl-N-((2S,3R)-4-((S)-2,2-spirocyclopentylchroman-4-ylamino)-3-hydroxy-1-phenylbutan-2-yl)-6-oxo-1,6-dihydropyridine-3-carboxamide] has an IC50 of no more than 5 µM. `O=C(N[C@@H](Cc1ccccc1)[C@H](O)CN[C@H]1CC2(CCCC2)Oc2ccccc21)c1cc(-c2ccccn2)c(=O)n(C2CCCC2)c1` [Example 150, 1-cyclopentyl-N-((2S,3R)-4-((S)-2,2-spirocyclopentylchroman-4-ylamino)-3-hydroxy-1-phenylbutan-2-yl)-6-oxo-5-(pyridin-2-yl)-1,6-dihydropyridine-3-carboxamide] showed an IC50 of no more than 5 µM. In the case of `CCc1ccc2c(c1)[C@@H](NC[C@@H](O)[C@H](Cc1ccccc1)NC(=O)c1ccc(=O)n(C3CCCC3)n1)CC1(CCC1)O2` [Example 151, 1-cyclopentyl-N-((2S,3R)-4-((S)-6-ethyl-2,2-spirocyclo-butylchroman-4-ylamino)-3-hydroxy-1-phenylbutan-2-yl)-6-oxo-1,6-dihydropyridazine-3-carboxamide], the IC50 is reported as no more than 5 µM. `O=C(N[C@@H](Cc1ccccc1)[C@H](O)CN[C@H]1CC2(CCC2)Oc2ccccc21)c1cc(N2CCCC2=O)c(=O)n(C2CCCC2)c1` [Example 152, 1-cyclopentyl-N-((2S,3R)-4-((S)-2,2-spirocyclobutylchroman-4-ylamino)-3-hydroxy-1-phenylbutan-2-yl)-6-oxo-5-(2-oxopyrrolidin-1-yl)-1,6-dihydropyridine-3-carboxamide] was tested, and the IC50 was no more than 5 µM. In the case of `O=C(N[C@@H](Cc1ccccc1)[C@H](O)CN[C@H]1CC2(CCC2)Oc2ccccc21)c1ccc(=O)n(C2CCCC2)c1` [Example 153, 1-cyclopentyl-N-((2S,3R)-4-((S)-2,2-spirocyclobutylchroman-4-ylamino)-3-hydroxy-1-phenylbutan-2-yl)-6-oxo-1,6-dihydropyridine-3-carboxamide], the IC50 is reported as no more than 5 µM. With `CCc1ccc2c(c1)[C@@H](NC[C@@H](O)[C@H](Cc1ccccc1)NC(=O)c1cn(C3CCCC3)c(=O)c3ccccc13)CC1(CCCC1)O2` [Example 158, 2-cyclopentyl-N-((2S,3R)-4-((S)-6-ethyl-2,2-spirocyclopentylchroman-4-ylamino)-3-hydroxy-1-phenylbutan-2-yl)-1-oxo-1,2-dihydroisoquinoline-4-carboxamide] the IC50 was no more than 5 µM.

Reference: patent US8163766B2, “Beta-secretase modulators and methods of use” (Amgen Inc., priority 2005, dated 2012)
